The target of one data set is Collagenase 3 (Homo sapiens, UniProt P45452). The data set can be described thus: Inhibition of MMP13.
The target in a further data set is T1, Matrilysin (Homo sapiens, UniProt P09237).
T1 sequence (P09237 whole entry): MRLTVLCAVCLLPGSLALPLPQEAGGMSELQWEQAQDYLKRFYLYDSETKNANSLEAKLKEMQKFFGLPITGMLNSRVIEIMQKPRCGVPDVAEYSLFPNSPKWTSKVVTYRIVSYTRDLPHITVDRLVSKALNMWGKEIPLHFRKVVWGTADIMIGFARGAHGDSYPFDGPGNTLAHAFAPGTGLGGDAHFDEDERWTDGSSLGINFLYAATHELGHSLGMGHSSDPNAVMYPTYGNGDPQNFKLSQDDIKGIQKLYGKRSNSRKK
The data set is described as follows: Inhibition of MMP7.

For data set [1], the target named is T2, Disintegrin and metalloproteinase domain-containing protein 17 (Homo sapiens, UniProt P78536). The data set can be described thus: Inhibition of TACE by cell based assay.
T2 sequence (P78536 whole entry, the tested form may be a part): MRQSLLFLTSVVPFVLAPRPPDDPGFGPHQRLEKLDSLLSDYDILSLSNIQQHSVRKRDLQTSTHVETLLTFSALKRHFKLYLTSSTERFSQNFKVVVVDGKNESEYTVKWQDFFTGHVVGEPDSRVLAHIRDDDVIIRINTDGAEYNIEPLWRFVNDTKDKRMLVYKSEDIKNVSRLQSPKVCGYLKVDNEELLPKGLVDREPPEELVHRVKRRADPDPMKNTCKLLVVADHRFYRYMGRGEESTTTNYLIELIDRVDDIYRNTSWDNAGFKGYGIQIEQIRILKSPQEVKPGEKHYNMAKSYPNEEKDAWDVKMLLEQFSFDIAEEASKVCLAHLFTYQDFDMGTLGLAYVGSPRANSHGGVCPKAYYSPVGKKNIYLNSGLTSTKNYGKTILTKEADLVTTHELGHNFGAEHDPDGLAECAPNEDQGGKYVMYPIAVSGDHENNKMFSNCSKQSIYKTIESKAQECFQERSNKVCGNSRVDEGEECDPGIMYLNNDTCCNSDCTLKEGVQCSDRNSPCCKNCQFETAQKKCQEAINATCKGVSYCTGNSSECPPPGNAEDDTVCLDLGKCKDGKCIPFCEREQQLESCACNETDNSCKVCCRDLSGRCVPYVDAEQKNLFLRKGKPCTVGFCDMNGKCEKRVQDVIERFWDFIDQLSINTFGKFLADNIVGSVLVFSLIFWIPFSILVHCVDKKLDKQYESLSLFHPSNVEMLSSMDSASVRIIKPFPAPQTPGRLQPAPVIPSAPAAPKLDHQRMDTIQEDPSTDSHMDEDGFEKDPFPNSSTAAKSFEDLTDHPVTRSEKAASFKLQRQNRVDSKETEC
A short description of data set [2]: Plasma concentration in Sprague-Dawley rat at 10 mg/kg, po measured after 6 hrs by LC/MS/MS analysis. The format is ADME, organism-based. Details: dose 10 mg/kg, route oral.
Data set [3] has as its target T3, Disintegrin and metalloproteinase domain-containing protein 10 (Homo sapiens, UniProt O14672).
T3 sequence (O14672 whole entry): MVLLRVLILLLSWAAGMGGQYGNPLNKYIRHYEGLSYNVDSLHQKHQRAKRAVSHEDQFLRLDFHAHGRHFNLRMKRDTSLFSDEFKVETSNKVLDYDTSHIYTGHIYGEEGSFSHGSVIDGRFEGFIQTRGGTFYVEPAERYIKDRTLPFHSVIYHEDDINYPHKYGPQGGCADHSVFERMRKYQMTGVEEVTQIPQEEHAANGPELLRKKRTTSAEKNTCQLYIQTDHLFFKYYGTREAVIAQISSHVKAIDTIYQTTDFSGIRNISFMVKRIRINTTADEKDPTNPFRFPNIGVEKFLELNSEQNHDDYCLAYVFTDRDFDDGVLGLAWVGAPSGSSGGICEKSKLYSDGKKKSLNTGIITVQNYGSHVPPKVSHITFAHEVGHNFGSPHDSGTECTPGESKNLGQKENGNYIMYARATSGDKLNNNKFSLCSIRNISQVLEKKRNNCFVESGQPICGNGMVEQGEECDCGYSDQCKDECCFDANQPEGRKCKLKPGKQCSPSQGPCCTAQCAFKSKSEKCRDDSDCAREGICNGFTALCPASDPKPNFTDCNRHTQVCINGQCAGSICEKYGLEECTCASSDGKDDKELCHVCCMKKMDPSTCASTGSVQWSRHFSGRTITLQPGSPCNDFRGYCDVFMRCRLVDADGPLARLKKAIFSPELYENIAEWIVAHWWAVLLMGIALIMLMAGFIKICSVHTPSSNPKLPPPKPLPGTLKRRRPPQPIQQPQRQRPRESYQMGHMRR
The data set can be described thus: Inhibition of ADAM10.

A short description of data set [4]: AUC in Sprague-Dawley rat at 10 mg/kg, po measured within 6 hrs after post-dosing by LC/MS/MS analysis. The format is ADME, organism-based. Set-up: time < 6 hr, dose 10 mg/kg, route oral. To be noted: plasma.
Another data set has as its target T4, Interstitial collagenase (Homo sapiens, UniProt P03956).
T4 sequence (P03956 whole entry): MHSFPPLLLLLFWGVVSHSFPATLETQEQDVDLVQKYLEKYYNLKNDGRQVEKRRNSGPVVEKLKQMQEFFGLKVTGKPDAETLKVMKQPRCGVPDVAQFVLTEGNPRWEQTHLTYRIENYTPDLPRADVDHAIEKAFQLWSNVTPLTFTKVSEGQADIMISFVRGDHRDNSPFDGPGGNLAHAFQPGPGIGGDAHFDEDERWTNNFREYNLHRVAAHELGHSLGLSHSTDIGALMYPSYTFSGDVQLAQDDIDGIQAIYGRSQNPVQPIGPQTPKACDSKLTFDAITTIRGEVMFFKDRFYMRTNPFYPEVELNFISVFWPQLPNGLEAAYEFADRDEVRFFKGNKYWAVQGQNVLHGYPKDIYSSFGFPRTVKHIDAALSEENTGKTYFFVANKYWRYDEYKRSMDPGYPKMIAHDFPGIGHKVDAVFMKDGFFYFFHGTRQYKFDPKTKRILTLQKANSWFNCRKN
The data set is described as follows: Inhibition of MMP1.

In data set [5] the target is Matrix metalloproteinase-9 (Homo sapiens, UniProt P14780). The data set is described as follows: Inhibition of MMP9.
Sequence of Matrix metalloproteinase-9 (P14780 whole entry): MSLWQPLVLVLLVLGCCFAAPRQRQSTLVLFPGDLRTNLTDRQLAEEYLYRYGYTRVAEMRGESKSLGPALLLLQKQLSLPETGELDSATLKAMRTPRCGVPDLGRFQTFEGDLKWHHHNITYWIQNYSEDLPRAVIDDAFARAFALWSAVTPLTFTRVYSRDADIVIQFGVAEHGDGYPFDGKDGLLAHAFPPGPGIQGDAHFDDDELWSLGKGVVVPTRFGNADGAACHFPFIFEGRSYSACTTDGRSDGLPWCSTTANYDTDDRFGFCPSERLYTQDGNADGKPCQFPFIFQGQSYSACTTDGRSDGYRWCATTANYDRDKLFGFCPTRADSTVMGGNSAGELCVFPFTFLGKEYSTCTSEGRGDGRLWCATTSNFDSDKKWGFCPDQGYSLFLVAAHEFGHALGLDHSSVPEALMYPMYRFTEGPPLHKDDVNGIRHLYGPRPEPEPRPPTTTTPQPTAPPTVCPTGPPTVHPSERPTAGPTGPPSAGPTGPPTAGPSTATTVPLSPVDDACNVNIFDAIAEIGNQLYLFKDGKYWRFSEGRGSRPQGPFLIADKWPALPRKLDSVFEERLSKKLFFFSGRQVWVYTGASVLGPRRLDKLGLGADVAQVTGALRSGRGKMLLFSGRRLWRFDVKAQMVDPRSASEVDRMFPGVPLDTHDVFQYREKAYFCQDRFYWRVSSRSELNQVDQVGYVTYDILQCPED
A further data set concerns the target Stromelysin-1 (Homo sapiens, UniProt P08254). The data set can be described thus: Inhibition of MMP3.
The target in data set [6] is 72 kDa type IV collagenase (Homo sapiens, UniProt P08253). The data set can be described thus: Inhibition of MMP2.
Sequence of 72 kDa type IV collagenase (P08253 whole entry, the tested form may be a part): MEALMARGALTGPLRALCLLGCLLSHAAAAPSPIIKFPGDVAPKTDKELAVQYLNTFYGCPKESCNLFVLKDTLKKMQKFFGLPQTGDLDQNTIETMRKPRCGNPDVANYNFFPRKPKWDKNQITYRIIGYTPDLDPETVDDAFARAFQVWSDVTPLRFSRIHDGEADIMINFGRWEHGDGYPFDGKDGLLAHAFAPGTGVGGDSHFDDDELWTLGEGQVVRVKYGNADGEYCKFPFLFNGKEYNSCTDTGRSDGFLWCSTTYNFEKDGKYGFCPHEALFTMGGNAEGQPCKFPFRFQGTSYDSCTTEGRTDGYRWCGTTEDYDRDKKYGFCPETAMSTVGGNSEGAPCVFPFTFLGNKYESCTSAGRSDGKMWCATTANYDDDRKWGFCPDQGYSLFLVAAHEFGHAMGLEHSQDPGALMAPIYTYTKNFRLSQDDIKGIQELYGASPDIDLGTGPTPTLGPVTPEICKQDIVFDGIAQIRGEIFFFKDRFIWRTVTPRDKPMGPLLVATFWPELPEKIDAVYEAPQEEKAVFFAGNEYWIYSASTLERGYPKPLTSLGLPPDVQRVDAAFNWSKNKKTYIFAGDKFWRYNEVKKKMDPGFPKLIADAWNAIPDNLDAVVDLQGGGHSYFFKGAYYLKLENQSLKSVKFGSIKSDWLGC
For data set [7], the target named is T2, Disintegrin and metalloproteinase domain-containing protein 17. The data set is described as follows: Inhibition of TACE.
Data set [8] has as its target Matrix metalloproteinase-14 (Homo sapiens, UniProt P50281). The data set is described as follows: Inhibition of MMP14.

Each structure is given as a SMILES string.

Sequence of Stromelysin-1 (P08254 whole entry): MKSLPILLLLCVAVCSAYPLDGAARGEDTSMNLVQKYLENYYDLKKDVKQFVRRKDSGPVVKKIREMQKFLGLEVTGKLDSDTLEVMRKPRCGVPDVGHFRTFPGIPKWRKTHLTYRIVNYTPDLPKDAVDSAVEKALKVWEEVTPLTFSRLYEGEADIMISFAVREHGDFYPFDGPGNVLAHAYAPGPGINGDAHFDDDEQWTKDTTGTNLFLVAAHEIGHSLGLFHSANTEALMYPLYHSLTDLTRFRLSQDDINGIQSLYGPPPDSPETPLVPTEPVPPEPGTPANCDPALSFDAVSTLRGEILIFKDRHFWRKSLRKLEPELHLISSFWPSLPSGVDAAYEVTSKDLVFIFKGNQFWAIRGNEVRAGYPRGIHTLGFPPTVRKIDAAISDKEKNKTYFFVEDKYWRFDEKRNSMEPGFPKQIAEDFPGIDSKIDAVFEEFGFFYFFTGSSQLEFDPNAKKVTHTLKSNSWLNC

Usually Ki stands for a dissociation constant, usually derived from enzyme kinetics or from competition with a known ligand. A lower Ki goes with tighter binding. One may read the IC50 as the midpoint of a concentration-inhibition curve. A lower IC50 goes with greater potency. As a reminder, the AUC is the area under the concentration-time curve, a measure of exposure. A high value points to high exposure. With `C[C@@H](NC(=O)[C@H](O)[C@@H](O)C(=O)N1CCC[C@@H]1c1csc(NC2CC2)n1)c1ccc(-n2cccn2)cc1`, the Ki on Collagenase 3 is over 40 µM; on Matrilysin, 18.1 µM; in data set [3], 1.35 µM; on Interstitial collagenase it was over 40 µM; in data set [5] it was over 40 µM; on Stromelysin-1 it was over 40 µM. Further, the inhibition constant Ki is 20.5 µM in data set [6], 0.005 µM in data set [7] and over 40 µM in [8]. In [1], this compound gave an IC50 of 3.02 µM. Further, the concentration at 6 h in data set [2] worked out at 17.6 µM. Further, in data set [4], the exposure (AUC) at 6 h was 134 µM·h.

With `CNc1nc([C@H]2c3ccccc3CN2C(=O)[C@H](O)[C@@H](O)C(=O)N[C@H](C)c2ccc(-n3cccn3)cc2)cs1`, the inhibition constant (Ki) on Collagenase 3 is 14.1 µM; on Matrilysin it was 13.5 µM; in data set [3], 0.12 µM; on Interstitial collagenase, over 40 µM; in data set [5], 10.1 µM; at Stromelysin-1, over 40 µM. Besides, the inhibition constant Ki in data set [6] was over 40 µM; in data set [7] it was 0.001 µM; in data set [8] it was 16.4 µM. In data set [1], this compound gave an IC50 of 0.416 µM. The exposure (AUC) at 6 h in data set [4] was 1.13 µM·h.

(Values after ChEMBL document CHEMBL1770127, “2-(2-Aminothiazol-4-yl)pyrrolidine-based tartrate diamides as potent, selective and orally bioavailable TACE inhibitors” (Bioorg Med Chem Lett, 2011).)
